Experimental data taken from PubChem BioAssay AID256 (DTP/NCI, 2004).
Values joined by “and” are separate entries in the source; they are usually repeats but may differ in a detail not shown here. Equal entries are not always repeated. Toxic doses and inconclusive results are not listed. Rule for the calls: active = survival T/C of 150% or more; inactive = T/C below 125% in these data.

Tested on: CD2F1 mice, L1210 leukemia ip, survival T/C
Test: NCI In Vivo Anticancer Drug Screen. Data for tumor model L1210 Leukemia (intraperitoneal) in CD2F1 (CDF1) mice
Settings: higher = longer survival
Outline: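 Mice carrying a transplanted tumor received test compound or vehicle alone. The value is the measurement in the treated group divided by that in the vehicle-treated control group.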

[1] = endpoint: mean survival time, dose: 100.0 mg/kg/injection, schedule: Q04DX003 (ip), vehicle: saline with Tween-80
[2] = endpoint: mean survival time, dose: 200.0 mg/kg/injection, schedule: Q04DX003 (ip), vehicle: saline with Tween-80
[3] = endpoint: mean survival time, dose: 400.0 mg/kg/injection, schedule: Q04DX003 (ip), vehicle: saline with Tween-80
[4] = endpoint: mean survival time, dose: 100.0 mg/kg/injection, schedule: Q01DX009 (ip), vehicle: saline with Tween-80
[5] = endpoint: mean survival time, dose: 200.0 mg/kg/injection, schedule: Q01DX009 (ip), vehicle: saline with Tween-80
[6] = endpoint: mean survival time, dose: 400.0 mg/kg/injection, schedule: Q01DX009 (ip), vehicle: saline with Tween-80
[7] = endpoint: mean survival time, dose: 25.0 mg/kg/injection, schedule: Q01DX009 (ip), vehicle: water
[8] = endpoint: mean survival time, dose: 50.0 mg/kg/injection, schedule: Q01DX009 (ip), vehicle: water
[9] = endpoint: mean survival time, dose: 100.0 mg/kg/injection, schedule: Q01DX009 (ip), vehicle: water
[10] = endpoint: mean survival time, dose: 200.0 mg/kg/injection, schedule: Q01DX009 (ip), vehicle: water
[11] = endpoint: mean survival time, dose: 400.0 mg/kg/injection, schedule: Q01DX009 (ip), vehicle: water
[12] = endpoint: mean survival time, dose: 50.0 mg/kg/injection, schedule: Q01DX009 (ip), vehicle: saline with Tween-80
[13] = endpoint: mean survival time, dose: 100.0 mg/kg/injection, schedule: Q01DX001 (ip), vehicle: other
[14] = endpoint: mean survival time, dose: 200.0 mg/kg/injection, schedule: Q01DX001 (ip), vehicle: other
[15] = endpoint: mean survival time, dose: 400.0 mg/kg/injection, schedule: Q01DX001 (ip), vehicle: other

Measured: T/C

CC(=O)CC(=O)c1ccccc1.CC(=O)CC(=O)c1ccccc1.CC(=O)CC(=O)c1ccccc1.[Cr]
inactive: endpoint: median survival time, dose: 50.0 mg/kg/injection, schedule: Q04DX002 (ip), vehicle: saline with Tween-80 88 % of control | endpoint: median survival time, dose: 100.0 mg/kg/injection, schedule: Q04DX002 (ip), vehicle: saline with Tween-80 88 % of control | endpoint: median survival time, dose: 200.0 mg/kg/injection, schedule: Q04DX002 (ip), vehicle: saline with Tween-80 88 % of control | endpoint: median survival time, dose: 400.0 mg/kg/injection, schedule: Q04DX002 (ip), vehicle: saline with Tween-80 88 % of control

CC(Br)C(=O)NCC(=O)O (stereo unspecified)
inactive: [1] 92 % of control | [2] 91 % of control | [3] 95 % of control

CC(C)C(Br)C(=O)NC(Cc1ccccc1)C(=O)O (stereo unspecified)
inactive: [1] 101 % of control | [2] 110 % of control | [3] 122 % of control

CS(=O)(=O)Nc1ccc(CC#N)cc1
inactive: [4] 98 % of control | [1] 101 % of control | [5] 101 % of control | [2] 107 % of control | [6] 102 % of control | [3] 109 % of control

S=C([S-])N1CCCCC1.S=C([S-])N1CCCCC1.[Zn]
inactive: endpoint: mean survival time, dose: 18.8 mg/kg/injection, schedule: Q01DX009 (ip), vehicle: saline 93 % of control | endpoint: mean survival time, dose: 37.5 mg/kg/injection, schedule: Q01DX009 (ip), vehicle: saline 90 % of control

OC1(Cc2ccccc2)CCCCCC1
inactive: endpoint: mean survival time, dose: 100.0 mg/kg/injection, schedule: Q04DX002 (ip), vehicle: other 95 % of control | endpoint: mean survival time, dose: 200.0 mg/kg/injection, schedule: Q04DX002 (ip), vehicle: other 92 % of control | endpoint: mean survival time, dose: 400.0 mg/kg/injection, schedule: Q04DX002 (ip), vehicle: other 92 % of control

NC(=O)Oc1cccc(OC(N)=O)c1
inactive: [7] 95 % of control | [8] 106 % of control | [9] 106 % of control | [10] 104 % of control | [11] 106 % of control

CCCCN1C(=O)C(=O)N(c2ccc(NC(C)=O)cc2)C1=O
inactive: [12] 93 % of control | [4] 89 % of control | [5] 89 % of control

O=c1cc[nH]c(=O)n1C1OC(CO)C(O)C1O (stereo unspecified)
inactive: endpoint: mean survival time, dose: 100.0 mg/kg/injection, schedule: Q01DX005 (ip), vehicle: saline 104 % of control | endpoint: mean survival time, dose: 200.0 mg/kg/injection, schedule: Q01DX005 (ip), vehicle: saline 113 % of control

CCO[Si](C)(OCC)OCC
inactive: endpoint: mean survival time, dose: 50.0 mg/kg/injection, schedule: Q01DX009 (ip), vehicle: saline 101 % of control | endpoint: mean survival time, dose: 100.0 mg/kg/injection, schedule: Q01DX009 (ip), vehicle: saline 101 % of control | endpoint: mean survival time, dose: 200.0 mg/kg/injection, schedule: Q01DX009 (ip), vehicle: saline 96 % of control

COC(=O)c1cc(C(=O)OC)c(C(=O)OC)cc1C(=O)OC
inactive: [1] 97 % of control | [2] 92 % of control | [3] 89 % of control

COc1ccc2c[n+](C)c3c4cc(OC)c(OC)cc4ccc3c2c1
inactive: endpoint: mean survival time, dose: 25.0 mg/kg/injection, schedule: Q04DX003 (ip), vehicle: saline with Tween-80 96 % of control

Nc1ncnc2c1c1c(N)[nH]c(=O)nc1n2C1OC(CO)C(O)C1O (stereo unspecified)
inactive: endpoint: mean survival time, dose: 12.5 mg/kg/injection, schedule: Q01DX005 (ip), vehicle: water 106 % of control | endpoint: mean survival time, dose: 25.0 mg/kg/injection, schedule: Q01DX005 (ip), vehicle: water 104 % of control | endpoint: mean survival time, dose: 50.0 mg/kg/injection, schedule: Q01DX005 (ip), vehicle: water 97 % of control | endpoint: mean survival time, dose: 100.0 mg/kg/injection, schedule: Q01DX005 (ip), vehicle: water 104 % of control | endpoint: mean survival time, dose: 200.0 mg/kg/injection, schedule: Q01DX005 (ip), vehicle: water 121 % of control

O=[N+]([O-])c1ccc2c([N+](=O)[O-])ccc3c2c1CC3
inactive: [1] 100 % of control | [2] 109 % of control | [3] 97 % of control

C=C1N(c2ccccc2)C(=O)OC1(C)C
inactive: endpoint: mean survival time, dose: 100.0 mg/kg/injection, schedule: Q04DX002 (ip), vehicle: saline with Tween-80 112 % of control | endpoint: mean survival time, dose: 200.0 mg/kg/injection, schedule: Q04DX002 (ip), vehicle: saline with Tween-80 112 % of control | endpoint: mean survival time, dose: 400.0 mg/kg/injection, schedule: Q04DX002 (ip), vehicle: saline with Tween-80 122 % of control

C1CCC(NC2CCCCC2)CC1
inactive: endpoint: mean survival time, dose: 25.0 mg/kg/injection, schedule: Q01DX001 (ip), vehicle: saline with Tween-80 104 % of control | endpoint: mean survival time, dose: 50.0 mg/kg/injection, schedule: Q01DX001 (ip), vehicle: saline with Tween-80 101 % of control | endpoint: median survival time, dose: 25.0 mg/kg/injection, schedule: Q01DX009 (ip), vehicle: saline 94 % of control | endpoint: median survival time, dose: 50.0 mg/kg/injection, schedule: Q01DX009 (ip), vehicle: saline 100 % of control | endpoint: median survival time, dose: 100.0 mg/kg/injection, schedule: Q01DX009 (ip), vehicle: saline 94 % of control | endpoint: median survival time, dose: 200.0 mg/kg/injection, schedule: Q01DX009 (ip), vehicle: saline 97 % of control | endpoint: median survival time, dose: 400.0 mg/kg/injection, schedule: Q01DX009 (ip), vehicle: saline 100 % of control

CCCCCCCCCC/C=C/C1=C(N=[N+]=N)C(=O)c2ccccc2C1=O
inactive: [13] 92 % of control | [14] 92 % of control | [15] 94 % of control

OCCNCc1ccc(Cl)cc1
inactive: [12] 96 % of control | [4] 98 % of control | [1] 103 % of control | [5] 93 % of control | [2] 96 % of control

CC1(C)CC(O)(C(Cl)c2ccccc2)C(=O)c2ccccc21 (stereo unspecified)
inactive: [7] 103 % of control | [8] 104 % of control | [9] 98 % of control | endpoint: mean survival time, dose: 100.0 mg/kg/injection, schedule: Q04DX003 (ip), vehicle: acetone 98 % of control | [10] 109 % of control | endpoint: mean survival time, dose: 200.0 mg/kg/injection, schedule: Q04DX003 (ip), vehicle: acetone 95 % of control | [11] 107 % of control | endpoint: mean survival time, dose: 400.0 mg/kg/injection, schedule: Q04DX003 (ip), vehicle: acetone 95 % of control

COc1cc2c(cc1OC)-c1cc3cc(OC)c(OC)cc3c(C)[n+]1CC2 (tested in a mixture with another compound)
inactive: endpoint: mean survival time, dose: 100.0 mg/kg/injection, schedule: Q04DX003 (ip), vehicle: saline sonified 103 % of control

O=[N+]([O-])c1ccc(N=Cc2ccc3c(c2)OCO3)c(Br)c1
inactive: endpoint: mean survival time, dose: 100.0 mg/kg/injection, schedule: Q01DX009 (ip), vehicle: Klucel (hydroxypropylcellulose) (HPC) 108 % of control | endpoint: mean survival time, dose: 100.0 mg/kg/injection, schedule: Q04DX003 (ip), vehicle: other 108 % of control | endpoint: mean survival time, dose: 200.0 mg/kg/injection, schedule: Q01DX009 (ip), vehicle: Klucel (hydroxypropylcellulose) (HPC) 109 % of control | endpoint: mean survival time, dose: 200.0 mg/kg/injection, schedule: Q04DX003 (ip), vehicle: other 103 % of control | endpoint: mean survival time, dose: 400.0 mg/kg/injection, schedule: Q01DX009 (ip), vehicle: Klucel (hydroxypropylcellulose) (HPC) 109 % of control | endpoint: mean survival time, dose: 400.0 mg/kg/injection, schedule: Q04DX003 (ip), vehicle: other 103 % of control

O=C(O/N=C(\c1ccccc1)c1cccs1)N(c1ccccc1)c1ccccc1
inactive: [13] 92 % of control | [14] 98 % of control | [15] 92 % of control

OC(Cc1nc2ccccc2s1)(C(F)(F)F)C(F)(F)F
inactive: [4] 96 % of control | [1] 95 % of control | [5] 93 % of control | [2] 104 % of control | [6] 96 % of control | [3] 97 % of control

Oc1ccc2ccccc2c1
inactive: endpoint: mean survival time, dose: 10.0 mg/kg/injection, schedule: Q04DX003 (ip), vehicle: Klucel (hydroxypropylcellulose) (HPC) 101 % of control | endpoint: mean survival time, dose: 20.0 mg/kg/injection, schedule: Q04DX003 (ip), vehicle: Klucel (hydroxypropylcellulose) (HPC) 96 % of control | endpoint: mean survival time, dose: 40.0 mg/kg/injection, schedule: Q04DX003 (ip), vehicle: Klucel (hydroxypropylcellulose) (HPC) 96 % of control

CC(=O)O.[La]
inactive: endpoint: mean survival time, dose: 200.0 mg/kg/injection, schedule: Q01DX001 (ip), vehicle: saline 94 % of control

O=c1cc(O)cnn1C1OC(CO)C(O)C1O (stereo unspecified)
inactive: [7] 118 % of control and 110 % of control | [8] 114 % of control and 117 % of control and 112 % of control | [9] 118 % of control (2×) and 108 % of control | [10] 117 % of control and 108 % of control | [11] 119 % of control

O=C(Nc1cccc2ccccc12)SCc1ccccc1
inactive: endpoint: mean survival time, dose: 50.0 mg/kg/injection, schedule: Q04DX002 (ip), vehicle: Klucel (hydroxypropylcellulose) (HPC) 88 % of control | endpoint: mean survival time, dose: 100.0 mg/kg/injection, schedule: Q04DX002 (ip), vehicle: Klucel (hydroxypropylcellulose) (HPC) 106 % of control | endpoint: mean survival time, dose: 200.0 mg/kg/injection, schedule: Q04DX002 (ip), vehicle: Klucel (hydroxypropylcellulose) (HPC) 95 % of control

CCN(CC)/C(N)=N\c1nc(C)c2cc(Cl)ccc2n1
inactive: endpoint: mean survival time, dose: 100.0 mg/kg/injection, schedule: Q01DX001 (ip), vehicle: saline 103 % of control
